The values below come from ChEMBL document CHEMBL6109086, “Discovery and biological evaluation of hederagenin derivatives as non-substrate inhibitors of P-glycoprotein-mediated multidrug resistance” (Eur J Med Chem, 2025).

In general, IC50 refers to the concentration that inhibits the measured activity by half. High values mean a need for much substance, low ones inhibition by little substance.

The nature of assay [1]: Sensitization of vincristine -induced cytotoxicity against human KBV cells assessed as fold change in vincristine IC50 at 5 uM incubated for 72 hrs by MTT assay relative to vincristine alone. Type of assay: functional. A general note: Tetrazolium assays rely on reduction of a dye to a coloured formazan, in cell work by metabolically active cells.
Assay [2] in a line: Sensitization of vincristine -induced cytotoxicity against human KBV cells assessed as fold change in vincristine IC50 at 10 uM incubated for 72 hrs by MTT assay relative to vincristine alone. Type of assay: functional.
Assay [3] is described as follows: Sensitization of paclitaxel-induced cytotoxicity against human KBV cells assessed as fold change in paclitaxel IC50 at 10 uM incubated for 72 hrs by MTT assay relative to paclitaxel alone. The assay is classed as functional.
Assay [4] is described as follows: Sensitization of paclitaxel-induced cytotoxicity against human KBV cells assessed as fold change in paclitaxel IC50 at 2.5 uM incubated for 72 hrs by MTT assay relative to paclitaxel alone. Type of assay: functional.
Assay [5] can be described thus: Sensitization of vincristine -induced cytotoxicity against human KBV cells assessed as fold change in vincristine IC50 at 2.5 uM incubated for 72 hrs by MTT assay relative to vincristine alone. Type of assay: functional.
The nature of assay [6]: Sensitization of paclitaxel-induced cytotoxicity against human KBV cells assessed as fold change in paclitaxel IC50 at 5 uM incubated for 72 hrs by MTT assay relative to paclitaxel alone. The assay is classed as functional.
The nature of assay [7]: Cytotoxicity against human KBV cells assessed as paclitaxel induced cytotoxicity by measuring cell survival at 10 uM measured after 72 hrs by MTT assay relative to control. The assay is classed as functional.
The nature of assay [8]: Reversal of multi-drug resistance in human KBV cells assessed as paclitaxel induced cytotoxicity by measuring cell survival at 10 uM measured after 72 hrs by MTT assay relative to control. Type of assay: functional.
A short description of assay [9]: Cytotoxicity against human KBV cells incubated for 72 hrs by MTT assay. The assay is classed as functional, cell-based.

For the compound `COc1cc2c(cc1OC)CN(CCc1ccc(NC(=O)c3cc(OC)c(OC)cc3NC(=O)c3cnc4ccccc4c3)cc1)CC2`, the “fold change (FC)” value in assay [1] came to 30.99; in assay [2], 744.78; in [3], 1523.35; in [4] it was 391.47; in assay [5], 16.78; in assay [6], 824.4.
For `CC1(C)CC[C@]2(C(=O)NCC(=O)OCCOCCO)CC[C@]3(C)C(=CC[C@@H]4[C@@]5(C)Cc6nccnc6[C@@](C)(CO)[C@@H]5CC[C@]43C)[C@@H]2C1`, the Activity was 94.99% in [7] and 84.84% in [8].
Taken in the same sequence, the figures for `CC(C)[C@H](N)C(=O)NCC(=O)NCCNC(=O)[C@]12CCC(C)(C)C[C@H]1C1=CC[C@@H]3[C@@]4(C)Cc5nccnc5[C@@](C)(CO)[C@@H]4CC[C@@]3(C)[C@]1(C)CC2` were 97.4% and 27.74%.
In the case of `CC1(C)CC[C@]2(C(=O)OCC(=O)OCc3nccs3)CC[C@]3(C)C(=CC[C@@H]4[C@@]5(C)Cc6nccnc6[C@@](C)(CO)[C@@H]5CC[C@]43C)[C@@H]2C1`, the Activity turned out to be 105.92% in assay [7] and 43.84% in assay [8].
Taken in the same sequence, the figures for `CC1(C)CC[C@]2(C(=O)NCCCC(=O)OCCOCCO)CC[C@]3(C)C(=CC[C@@H]4[C@@]5(C)Cc6nccnc6[C@@](C)(CO)[C@@H]5CC[C@]43C)[C@@H]2C1` were 91.43% and 70.13%.
Taken in the same sequence, the figures for `CC1(C)CC[C@]2(C(=O)OCC(=O)NCc3ccccn3)CC[C@]3(C)C(=CC[C@@H]4[C@@]5(C)Cc6nccnc6[C@@](C)(CO)[C@@H]5CC[C@]43C)[C@@H]2C1` were 82.98% and 33.22%.
The corresponding values for `CC1(C)CC[C@]2(C(=O)OCC(=O)OCc3ccncc3)CC[C@]3(C)C(=CC[C@@H]4[C@@]5(C)Cc6nccnc6[C@@](C)(CO)[C@@H]5CC[C@]43C)[C@@H]2C1` are 109.15% and 46.31%.
As to `CC1(C)CC[C@]2(C(=O)OCC(=O)NCc3cccs3)CC[C@]3(C)C(=CC[C@@H]4[C@@]5(C)Cc6nccnc6[C@@](C)(CO)[C@@H]5CC[C@]43C)[C@@H]2C1`, the Activity in assay [7] is listed as 54.97%; in assay [8], 25.86%.
Regarding `CC1(C)CC[C@]2(C(=O)NCC(=O)OCCOCCOCCO)CC[C@]3(C)C(=CC[C@@H]4[C@@]5(C)Cc6nccnc6[C@@](C)(CO)[C@@H]5CC[C@]43C)[C@@H]2C1`, the Activity was 86.82% in assay [7] and 67.88% in assay [8].
As to `CC1(C)CC[C@]2(C(=O)OCC(=O)OCc3cnccn3)CC[C@]3(C)C(=CC[C@@H]4[C@@]5(C)Cc6nccnc6[C@@](C)(CO)[C@@H]5CC[C@]43C)[C@@H]2C1`, the figures for the Activity in assay [7] and in assay [8] were 121.45% and 53.78%, respectively.
Taken in the same sequence, the figures for `CC(C)[C@H](N)C(=O)N[C@H](C(=O)NCCNC(=O)[C@]12CCC(C)(C)C[C@H]1C1=CC[C@@H]3[C@@]4(C)Cc5nccnc5[C@@](C)(CO)[C@@H]4CC[C@@]3(C)[C@]1(C)CC2)C(C)C` were 87.47% and 89.43%.
The compound `CC[C@]1(O)C[C@H]2CN(CCc3c([nH]c4ccccc34)[C@@](C(=O)OC)(c3cc4c(cc3OC)N(C=O)[C@H]3[C@@](O)(C(=O)OC)[C@H](OC(C)=O)[C@]5(CC)C=CCN6CC[C@]43[C@@H]65)C2)C1` [VINCRISTINE] registered an IC50 in assay [9] of 469 nM.
Consider `COC(=O)CC[C@H](NC(=O)COC(=O)[C@]12CCC(C)(C)C[C@H]1C1=CC[C@@H]3[C@@]4(C)Cc5nccnc5[C@@](C)(CO)[C@@H]4CC[C@@]3(C)[C@]1(C)CC2)C(=O)OC`, for which the Activity in [7] is on record as 92.53%; in [8], 40.07%.
Taken in the same sequence, the figures for `COC(=O)[C@H](CCSC)NC(=O)COC(=O)[C@]12CCC(C)(C)C[C@H]1C1=CC[C@@H]3[C@@]4(C)Cc5nccnc5[C@@](C)(CO)[C@@H]4CC[C@@]3(C)[C@]1(C)CC2` were 79.95% and 37.17%.
Take `CC1(C)CC[C@]2(C(=O)OCC(=O)OCC3CCO3)CC[C@]3(C)C(=CC[C@@H]4[C@@]5(C)Cc6nccnc6[C@@](C)(CO)[C@@H]5CC[C@]43C)[C@@H]2C1` (stereo partly specified): the Activity was 106.82% in assay [7] and 48.06% in [8].
Taken in the same sequence, the figures for `C[C@H](N)C(=O)N[C@@H](C)C(=O)NCCNC(=O)[C@]12CCC(C)(C)C[C@H]1C1=CC[C@@H]3[C@@]4(C)Cc5nccnc5[C@@](C)(CO)[C@@H]4CC[C@@]3(C)[C@]1(C)CC2` were 92.74% and 28.53%.
Taken in the same sequence, the figures for `COC(=O)[C@H](Cc1ccccc1)NC(=O)COC(=O)[C@]12CCC(C)(C)C[C@H]1C1=CC[C@@H]3[C@@]4(C)Cc5nccnc5[C@@](C)(CO)[C@@H]4CC[C@@]3(C)[C@]1(C)CC2` were 90.77% and 38.69%.
The corresponding values for `CC1(C)CC[C@]2(C(=O)NCC(=O)OCCOCCOCCOCCOCCOCCOCCOCCOCCO)CC[C@]3(C)C(=CC[C@@H]4[C@@]5(C)Cc6nccnc6[C@@](C)(CO)[C@@H]5CC[C@]43C)[C@@H]2C1` are 79.04% and 74.02%.
In the case of `CC1(C)CC[C@]2(C(=O)NCCCC(=O)OCCOCCOCCOCCOCCO)CC[C@]3(C)C(=CC[C@@H]4[C@@]5(C)Cc6nccnc6[C@@](C)(CO)[C@@H]5CC[C@]43C)[C@@H]2C1`, the Activity amounted to 94.86% in [7] and 27.02% in [8].
The corresponding values for `CC(C)C[C@H](N)C(=O)NCC(=O)NCCNC(=O)[C@]12CCC(C)(C)C[C@H]1C1=CC[C@@H]3[C@@]4(C)Cc5nccnc5[C@@](C)(CO)[C@@H]4CC[C@@]3(C)[C@]1(C)CC2` are 98.91% and 96.68%.
As to `CC1(C)CC[C@]2(C(=O)NCC(=O)OCCOCCOCCOCCO)CC[C@]3(C)C(=CC[C@@H]4[C@@]5(C)Cc6nccnc6[C@@](C)(CO)[C@@H]5CC[C@]43C)[C@@H]2C1`, the Activity was 90.96% in assay [7] and 83.46% in assay [8].
The corresponding values for `CC1(C)CC[C@]2(C(=O)NCCCC(=O)OCCOCCOCCOCCO)CC[C@]3(C)C(=CC[C@@H]4[C@@]5(C)Cc6nccnc6[C@@](C)(CO)[C@@H]5CC[C@]43C)[C@@H]2C1` are 93.67% and 28.96%.
Regarding `O[C@@H](COc1cccc2ncccc12)CN1CCN([C@@H]2c3ccccc3[C@@H]3[C@H](c4ccccc42)C3(F)F)CC1` [ZOSUQUIDAR], the “fold change (FC)” value is listed as 33.85 in assay [1]; 721.86 in [2]; 449.19 in assay [3]; 45.38 in assay [4]; 9.01 in assay [5]; 133.98 in [6].
For the compound `COC(=O)[C@H](CC(C)C)NC(=O)COC(=O)[C@]12CCC(C)(C)C[C@H]1C1=CC[C@@H]3[C@@]4(C)Cc5nccnc5[C@@](C)(CO)[C@@H]4CC[C@@]3(C)[C@]1(C)CC2`, the Activity in assay [7] worked out at 85.1%; in [8] it was 38.41%.
For `CC1(C)CC[C@]2(C(=O)OCC(=O)NCC3CCOCC3)CC[C@]3(C)C(=CC[C@@H]4[C@@]5(C)Cc6nccnc6[C@@](C)(CO)[C@@H]5CC[C@]43C)[C@@H]2C1`, the Activity in assay [7] was found to be 78.91%; in assay [8] it was 30.34%.
Taken in the same sequence, the figures for `CC1(C)CC[C@]2(C(=O)OCC(=O)OCc3ncco3)CC[C@]3(C)C(=CC[C@@H]4[C@@]5(C)Cc6nccnc6[C@@](C)(CO)[C@@H]5CC[C@]43C)[C@@H]2C1` were 62.38% and 26.03%.
Taken in the same sequence, the figures for `COC(=O)C[C@H](NC(=O)COC(=O)[C@]12CCC(C)(C)C[C@H]1C1=CC[C@@H]3[C@@]4(C)Cc5nccnc5[C@@](C)(CO)[C@@H]4CC[C@@]3(C)[C@]1(C)CC2)C(=O)OC` were 79.2% and 35.97%.
With `CC1(C)CC[C@]2(C(=O)NCCNC(=O)CNC(=O)CN)CC[C@]3(C)C(=CC[C@@H]4[C@@]5(C)Cc6nccnc6[C@@](C)(CO)[C@@H]5CC[C@]43C)[C@@H]2C1`, the Activity was 91.41% in [7] and 87.67% in [8].
Consider `CC1(C)CC[C@]2(C(=O)NCC(=O)OCCOCCOCCOCCOCCO)CC[C@]3(C)C(=CC[C@@H]4[C@@]5(C)Cc6nccnc6[C@@](C)(CO)[C@@H]5CC[C@]43C)[C@@H]2C1`, for which the Activity turned out to be 77.18% in [7] and 78.98% in [8].
`CC1(C)CC[C@]2(C(=O)OCC(=O)NCc3ncccn3)CC[C@]3(C)C(=CC[C@@H]4[C@@]5(C)Cc6nccnc6[C@@](C)(CO)[C@@H]5CC[C@]43C)[C@@H]2C1`: the results for the Activity in [7] and in assay [8] were 90.35% and 39.38%, respectively.
The corresponding values for `CC1(C)CC[C@]2(C(=O)NCCCC(=O)OCCOCCOCCO)CC[C@]3(C)C(=CC[C@@H]4[C@@]5(C)Cc6nccnc6[C@@](C)(CO)[C@@H]5CC[C@]43C)[C@@H]2C1` are 96.02% and 63.88%.
Taken in the same sequence, the figures for `CC1(C)CC[C@]2(C(=O)OCC(=O)NCc3cnccn3)CC[C@]3(C)C(=CC[C@@H]4[C@@]5(C)Cc6nccnc6[C@@](C)(CO)[C@@H]5CC[C@]43C)[C@@H]2C1` were 97.94% and 40.44%.
